Data: ChEMBL document CHEMBL5252541, “Repurposing antipsychotic drugs into antifungal agents: Synergistic combinations of azoles and bromperidol derivatives in the treatment of various fungal infections” (Eur J Med Chem, 2017)
Values after ≈ are worked out from the molar mass of the structure shown.

Assays:
Candida albicans [1] = assay: microbe, parasite or virus in culture; details: ATCC 90819, 48 h
Description: Synergistic antifungal activity against Candida albicans ATCC 90819 assessed as voriconazole MIC measured after 48 hrs by checkboard based microplate reader analysis

J774.A1 [2] = assay: Cytotoxicity against mouse J774.A1 cells assessed as cell survival at 4 to 16 microg/ml by XTT assay; type: toxicity, cell-based; details: dose 4-16 µg/ml
Candida albicans [3] = assay: Synergistic antifungal activity against Candida albicans ATCC MYA-2876 assessed as voriconazole MIC measured after 48 hrs by checkboard based microplate reader analysis; type: functional
Candida albicans [4] = assay: Synergistic antifungal activity against Candida albicans ATCC MYA-1003 assessed as voriconazole MIC measured after 48 hrs by checkboard based microplate reader analysis; type: functional
Candida albicans [5] = assay: Antifungal activity against Candida albicans ATCC MYA-2876 measured after 48 hrs by broth microdilution analysis; type: functional
Candida albicans [6] = assay: Antifungal activity against Candida albicans ATCC MYA-1237 measured after 48 hrs by broth microdilution analysis; type: functional
Candida albicans [7] = assay: Antifungal activity against Candida albicans ATCC 64124 measured after 48 hrs by broth microdilution analysis; type: functional
Candida albicans [8] = assay: Antifungal activity against Candida albicans ATCC MYA-1003 measured after 48 hrs by broth microdilution analysis; type: functional
[9] = Cytotoxicity against mouse J774.A1 cells assessed as cell survival at 8 microg/ml by XTT assay; type: toxicity, cell-based; details: J774.A1 cells, at 8 µg/mL, read-out: Activity
[10] = Cytotoxicity against human BEAS-2B cells assessed as cell survival by XTT assay; type: toxicity, cell-based; details: read-out: Activity
Candida albicans [11] = assay: Synergistic antifungal activity against Candida albicans ATCC MYA-1237 assessed as voriconazole MIC measured after 48 hrs by checkboard based microplate reader analysis; type: functional
Aspergillus terreus [12] = assay: Synergistic antifungal activity against Aspergillus terreus ATCC MYA-3633 assessed as voriconazole MIC measured after 48 hrs by checkboard based microplate reader analysis; type: functional
HEK293 [13] = assay: Cytotoxicity against HEK293 cells assessed as cell survival at 4 to 16 microg/ml by XTT assay; type: toxicity, cell-based; details: human, dose 4-16 µg/ml
Candida albicans [14] = assay: Additive antifungal activity against Candida albicans ATCC MYA-1237 assessed as fractional inhibitory concentration index measured for 72 hrs in presence of voriconazole; type: functional
Candida albicans [15] = assay: Antifungal activity against Candida albicans ATCC 10231 measured after 48 hrs by broth microdilution analysis; type: functional
[16] = Cytotoxicity against mouse J774.A1 cells assessed as cell survival by XTT assay; type: toxicity, cell-based; details: read-out: Activity
HEK293 [17] = assay: Cytotoxicity against HEK293 cells assessed as cell survival up to 4 microg/ml by XTT assay; type: toxicity, cell-based; details: human, dose < 4 µg/ml
BEAS-2B [18] = assay: Cytotoxicity against human BEAS-2B cells assessed as cell survival up to 4 microg/ml by XTT assay; type: toxicity, cell-based; details: dose < 4 µg/ml
BEAS-2B [19] = assay: Cytotoxicity against human BEAS-2B cells assessed as cell survival at 4 to 16 microg/ml by XTT assay; type: toxicity, cell-based; details: dose 4-16 µg/ml
Candida albicans [20] = assay: microbe, parasite or virus in culture; details: ATCC 64124, 48 h
Description: Synergistic antifungal activity against Candida albicans ATCC 64124 assessed as voriconazole MIC measured after 48 hrs by checkboard based microplate reader analysis

Candida albicans [21] = assay: Synergistic antifungal activity against Candida albicans ATCC MYA-2310 assessed as voriconazole MIC measured after 48 hrs by checkboard based microplate reader analysis; type: functional
Nakaseomyces glabratus [22] = assay: Synergistic antifungal activity against Candida glabrata ATCC 2001 assessed as voriconazole MIC measured after 48 hrs by checkboard based microplate reader analysis; type: functional
Nakaseomyces glabratus [23] = assay: Antifungal activity against Candida glabrata ATCC 2001 measured after 48 hrs by broth microdilution analysis; type: functional
HEK293 [24] = assay: Cytotoxicity against HEK293 cells assessed as cell survival at 8 microg/ml by XTT assay; type: toxicity, cell-based; details: human, dose 8 µg/ml
Candida albicans [25] = assay: microbe, parasite or virus in culture; details: ATCC 10231, 48 h
Description: Synergistic antifungal activity against Candida albicans ATCC 10231 assessed as voriconazole MIC measured after 48 hrs by checkboard based microplate reader analysis

Candida albicans [26] = assay: Antifungal activity against Candida albicans ATCC 90819 measured after 48 hrs by broth microdilution analysis; type: functional
Aspergillus terreus [27] = assay: Antifungal activity against Aspergillus terreus ATCC MYA-3633 measured after 48 hrs by broth microdilution analysis; type: functional
[28] = Cytotoxicity against HEK293 cells assessed as cell survival by XTT assay; type: toxicity, cell-based; details: human, read-out: Activity
J774.A1 [29] = assay: Cytotoxicity against mouse J774.A1 cells assessed as cell survival up to 4 microg/ml by XTT assay; type: toxicity, cell-based; details: dose < 4 µg/ml
Candida albicans [30] = assay: Synergistic antifungal activity against Candida albicans ATCC 10231 assessed as posaconazole MIC measured after 48 hrs by checkboard based microplate reader analysis; type: functional
Candida albicans [31] = assay: Synergistic antifungal activity against Candida albicans ATCC MYA-2876 assessed as posaconazole MIC measured after 48 hrs by checkboard based microplate reader analysis; type: functional
Candida albicans [32] = assay: Synergistic antifungal activity against Candida albicans ATCC MYA-1003 assessed as posaconazole MIC measured after 48 hrs by checkboard based microplate reader analysis; type: functional
Candida albicans [33] = assay: Synergistic antifungal activity against Candida albicans ATCC MYA-1237 assessed as posaconazole MIC measured after 48 hrs by checkboard based microplate reader analysis; type: functional
[34] = Cytotoxicity against HEK293 cells assessed as cell survival at 16 microg/ml by XTT assay; type: toxicity, cell-based; details: human, at 16 µg/mL, read-out: Activity
Candida albicans [35] = assay: Synergistic antifungal activity against Candida albicans ATCC 64124 assessed as posaconazole MIC measured after 48 hrs by checkboard based microplate reader analysis; type: functional
Aspergillus terreus [36] = assay: Synergistic antifungal activity against Aspergillus terreus ATCC MYA-3633 assessed as posaconazole MIC measured after 48 hrs by checkboard based microplate reader analysis; type: functional
Candida albicans [37] = assay: Additive antifungal activity against Candida albicans ATCC MYA-1237 assessed as fractional inhibitory concentration index measured for 72 hrs in presence of posaconazole; type: functional
Candida albicans [38] = assay: Synergistic antifungal activity against Candida albicans ATCC 90819 assessed as posaconazole MIC measured after 48 hrs by checkboard based microplate reader analysis; type: functional
[39] = Cytotoxicity against mouse J774.A1 cells assessed as cell survival at 16 microg/ml by XTT assay; type: toxicity, cell-based; details: at 16 µg/mL, read-out: Activity
Nakaseomyces glabratus [40] = assay: Synergistic antifungal activity against Candida glabrata ATCC 2001 assessed as posaconazole MIC measured after 48 hrs by checkboard based microplate reader analysis; type: functional
Candida albicans [41] = assay: Synergistic antifungal activity against Candida albicans ATCC MYA-2310 assessed as posaconazole MIC measured after 48 hrs by checkboard based microplate reader analysis; type: functional

## C[C@@H](c1ncncc1F)[C@](O)(Cn1cncn1)c1ccc(F)cc1F [VORICONAZOLE]
Candida albicans [1]
  MIC: 0.25 µg/mL (≈ 0.716 µM)
J774.A1 [2]
  Activity: Non-Toxic
Candida albicans [3]
  MIC: > 32 µg/mL
Candida albicans [4]
  MIC: 2 µg/mL
Candida albicans [5]
  MIC: > 32 µg/mL
Candida albicans [6]
  MIC: > 32 µg/mL
Candida albicans [7]
  MIC: > 32 µg/mL
Candida albicans [8]
  MIC: > 32 µg/mL
[9]
  viability at 8 microg/ml: 100%
[10]
  viability: > 100%
Candida albicans [11]
  MIC: > 32 µg/mL
Aspergillus terreus [12]
  MIC: 0.5 µg/mL
HEK293 [13]
  Activity: Non-Toxic
Candida albicans [14]
  fractional inhibitory concentration index (FICI): 2
Candida albicans [15]
  MIC: 1 µg/mL (≈ 2.86 µM)
[16]
  viability: > 100%
HEK293 [17]
  Activity: Non-Toxic
BEAS-2B [18]
  Activity: Non-Toxic
BEAS-2B [19]
  Activity: Non-Toxic
Candida albicans [20]
  MIC: 4 µg/mL (≈ 11.5 µM)
Candida albicans [21]
  MIC: > 32 µg/mL
Nakaseomyces glabratus [22]
  MIC: > 32 µg/mL
Nakaseomyces glabratus [23]
  MIC: > 32 µg/mL
HEK293 [24]
  Activity: Non-Toxic
Candida albicans [25]
  MIC: 0.25 µg/mL (≈ 0.716 µM)
Candida albicans [26]
  MIC: > 32 µg/mL
Aspergillus terreus [27]
  MIC: 0.25 µg/mL (≈ 0.716 µM)
[28]
  viability: > 100%
J774.A1 [29]
  Activity: Non-Toxic

## CC[C@@H]([C@H](C)O)n1ncn(-c2ccc(N3CCN(c4ccc(OC[C@@H]5CO[C@@](Cn6cncn6)(c6ccc(F)cc6F)C5)cc4)CC3)cc2)c1=O [POSACONAZOLE]
Candida albicans [5]
  MIC: > 32 µg/mL
Candida albicans [6]
  MIC: > 32 µg/mL
Candida albicans [7]
  MIC: > 32 µg/mL
Candida albicans [30]
  MIC: 0.125 µg/mL
Candida albicans [8]
  MIC: > 32 µg/mL
Candida albicans [31]
  MIC: > 32 µg/mL
[9]
  viability at 8 microg/ml: 80%
Candida albicans [32]
  MIC: 0.5 µg/mL
[10]
  viability: > 100%
Candida albicans [33]
  MIC: 0.5 µg/mL
Candida albicans [15]
  MIC: 1 µg/mL (≈ 1.43 µM)
[34]
  viability at 16 microg/ml: 45%
[16]
  viability: > 100%
Candida albicans [35]
  MIC: 2 µg/mL
Aspergillus terreus [36]
  MIC: 0.25 µg/mL
Candida albicans [37]
  fractional inhibitory concentration index (FICI): 2
Candida albicans [38]
  MIC: 0.25 µg/mL
HEK293 [17]
  Activity: Non-Toxic
BEAS-2B [18]
  Activity: Non-Toxic
Nakaseomyces glabratus [23]
  MIC: > 32 µg/mL
HEK293 [24]
  Activity: Non-Toxic
[39]
  viability at 16 microg/ml: 46%
Nakaseomyces glabratus [40]
  MIC: 0.25 µg/mL
Candida albicans [26]
  MIC: > 32 µg/mL
Aspergillus terreus [27]
  MIC: 0.25 µg/mL (≈ 0.357 µM)
[28]
  viability: > 100%
J774.A1 [29]
  Activity: Non-Toxic
Candida albicans [41]
  MIC: 0.5 µg/mL
